Test results published in patent publication US7202265B2, “Indolinone combinatorial libraries and related products and methods for the treatment of disease” (Sugen, Inc., priority 1997, dated 2007).

System: human MET
Test: MET biochemical kinase assay
Parameters: concentration or dose not given beside the values
Excerpt: (d) MET Biochemical Kinase Assay
A met biochemical kinase assay may be performed for met generally as described above for other kinases by substituting that or the other kinases. In particular, ELISA plates are coated with goat anti-rabbit Fc antibodies, which are used to capture commercially available (from Santa Cruz Biotechnology) rabbit polyclonal antibodies to the cytoplasmic domain of human MET. […] The chimeric receptors, or MET, from these lysates are captured on the antibody coated plates. After washing away extraneous proteins, test compounds are added and an in vitro kinase assay is performed by addition of an appropriate kinase buffer (containing ATP, divalent metal ions, etc.). Incorporation of phosphate into the captured receptors is detected with an anti-phosphotyrosine antibody conjugate with horse radish peroxidase using TMB as a substrate for calorimetric detection.

Compound	Met Kinase % Inhibition [%]
O=C1Nc2c(Br)cc(Br)cc2C1=Cc1ccc[nH]1 [10717/A09]	9.4
Cn1cccc1C=C1C(=O)Nc2ccc(I)cc21 [10717/B04]	70.0
Cc1ccc(C=C2C(=O)Nc3ccc(I)cc32)s1 [10717/B07]	90.0
Cc1[nH]c(C=C2C(=O)Nc3ccc(I)cc32)c(Br)c1Br [10717/B11]	91.0
Cc1c(Br)ccc2c1C(=Cc1cccn1C)C(=O)N2 [10717/C04]	25.0
CNS(=O)(=O)c1ccc2c(c1)C(=Cc1cccn1C)C(=O)N2 [10717/D04]	21.0
CNS(=O)(=O)c1ccc2c(c1)C(=Cc1ccc(Br)cc1)C(=O)N2 [10717/D08]	16.0
CCOc1ccccc1C=C1C(=O)Nc2ccc(S(=O)(=O)Nc3ccc(C(F)(F)F)cc3)cc21 [10717/E02]	24.0
Cc1ccc(C=C2C(=O)Nc3ccc(S(=O)(=O)Nc4ccc(C(F)(F)F)cc4)cc32)s1 [10717/E07]	41.0
O=C1Nc2ccc(S(=O)(=O)N3CCOCC3)cc2C1=Cc1c[nH]c2ccccc12 [10717/F06]	49.0
O=C1Nc2ccc(S(=O)(=O)N3CCOCC3)cc2C1=Cc1ccc(Br)cc1 [10717/F08]	64.0
O=C1Nc2ccc(CCCl)cc2C1=Cc1cccs1 [10717/G03]	4.5
O=C1Nc2ccc(CCCl)cc2C1=Cc1ccc(F)cc1 [10717/G05]	4.7
O=C1Nc2ccc(CCCl)cc2C1=Cc1c[nH]c2ccccc12 [10717/G06]	34.0
Cc1ccc(C=C2C(=O)Nc3ccc(CCCl)cc32)s1 [10717/G07]	7.5
CCOC(=O)CCc1c(C(=O)OCC)[nH]c(C=C2C(=O)Nc3ccc(Br)c(C)c32)c1CC(=O)OCC [10718/C05]	8.7
CCOC(=O)c1cc(C=C2C(=O)Nc3ccc(Br)c(C)c32)oc1C [10718/C06]	3.9
Cc1c(Br)ccc2c1C(=Cc1ccco1)C(=O)N2 [10718/C10]	4.4
CCOC(=O)c1c(C)[nH]c(C=C2C(=O)Nc3ccc(S(=O)(=O)NC)cc32)c1C [10718/D02]	32.0
CNS(=O)(=O)c1ccc2c(c1)C(=Cc1ccc(Cl)c([N+](=O)[O-])c1)C(=O)N2 [10718/D08]	2.3

Compound	Met Kinase % Inhibition [%]
CNS(=O)(=O)c1ccc2c(c1)C(=Cc1ccc(O)c(C)c1O)C(=O)N2 [10718/D09]	9.9
CCOC(=O)c1cc(C=C2C(=O)Nc3ccc(CCCl)cc32)oc1C [10718/G06]	61.0
COC(=O)c1[nH]c(C)c(C=C2C(=O)Nc3ccc(CCCl)cc32)c1C(=O)OC [10718/G07]	52.0
Cc1c(O)ccc(C=C2C(=O)Nc3ccc(CCCl)cc32)c1O [10718/G09]	27.0
O=C1Nc2ccc(CCCl)cc2C1=Cc1ccc([N+](=O)[O-])o1 [10718/G11]	3.0
COc1cc(OC)c(C=C2C(=O)Nc3c(Br)cc(Br)cc32)c(OC)c1 [10719/A06]	−7.0
O=C1Nc2c(Br)cc(Br)cc2C1=Cc1ccc(F)cc1Cl [10719/A09]	47.0
CCOc1ccc(C=C2C(=O)Nc3ccc(I)cc32)cc1OC [10719/B02]	47.0
Cc1c(Br)ccc2c1C(=Cc1ccc(O)cc1)C(=O)N2 [10719/C07]	7.7
Cc1c(Br)ccc2c1C(=Cc1ccc(F)cc1Cl)C(=O)N2 [10719/C09]	8.9
Cc1c(Br)ccc2c1C(=Cc1cccc([N+](=O)[O-])c1)C(=O)N2 [10719/C10]	7.9
Cc1c(Br)ccc2c1C(=Cc1ccc(F)cc1C(F)(F)F)C(=O)N2 [10719/C11]	−5.1
CNS(=O)(=O)c1ccc2c(c1)C(=Cc1ccc(F)cc1Cl)C(=O)N2 [10719/D09]	13.0
COc1ccc(C=C2C(=O)Nc3ccc(S(=O)(=O)Nc4ccc(C(F)(F)F)cc4)cc32)c(OC)c1 [10719/E04]	3.1
CCc1c(C)[nH]c(C=C2C(=O)Nc3ccc(S(=O)(=O)Nc4ccc(C(F)(F)F)cc4)cc32)c1C [10719/E05]	39.0
COc1cc(OC)c(C=C2C(=O)Nc3ccc(S(=O)(=O)Nc4ccc(C(F)(F)F)cc4)cc32)c(OC)c1 [10719/E06]	−4.5
CN(C)c1ccc(C=C2C(=O)Nc3ccc(S(=O)(=O)Nc4ccc(C(F)(F)F)cc4)cc32)cc1 [10719/E08]	80.0
COc1ccc(C=C2C(=O)Nc3ccc(S(=O)(=O)N4CCOCC4)cc32)c(OC)c1 [10719/F04]	3.3
COc1cc(OC)c(C=C2C(=O)Nc3ccc(S(=O)(=O)N4CCOCC4)cc32)c(OC)c1 [10719/F06]	−22.0
O=C1Nc2ccc(S(=O)(=O)N3CCOCC3)cc2C1=Cc1ccc(F)cc1C(F)(F)F [10719/F11]	8.7

Compound	Met Kinase % Inhibition [%]
CCOc1ccc(C=C2C(=O)Nc3ccc(CCCl)cc32)cc1OC [10719/G02]	−2.4
COc1ccc(C=C2C(=O)Nc3ccc(CCCl)cc32)c(OC)c1 [10719/G04]	−8.2
COc1cc(OC)c(C=C2C(=O)Nc3ccc(CCCl)cc32)c(OC)c1 [10719/G06]	−18.1
O=C1Nc2ccc(CCCl)cc2C1=Cc1ccc(O)cc1 [10719/G07]	24.0
O=C1Nc2ccc(CCCl)cc2C1=Cc1ccc(F)cc1Cl [10719/G09]	1.3
O=C1Nc2ccc(CCCl)cc2C1=Cc1ccc(F)cc1C(F)(F)F [10719/G11]	24.0
COc1ccc(C=C2C(=O)Nc3ccc(Br)c(C)c32)cc1OC [10720/C04]	29.0
Cc1c(Br)ccc2c1C(=Cc1ncc[nH]1)C(=O)N2 [10720/C11]	30.0
CNS(=O)(=O)c1ccc2c(c1)C(=Cc1ccccc1O)C(=O)N2 [10720/D05]	9.8
CNS(=O)(=O)c1ccc2c(c1)C(=Cc1cc(OC)ccc1O)C(=O)N2 [10720/D10]	51.0
O=C1Nc2ccc(S(=O)(=O)Nc3ccc(C(F)(F)F)cc3)cc2C1=Cc1c(F)cc(F)cc1F [10720/E02]	18.0
O=C1Nc2ccc(S(=O)(=O)Nc3ccc(C(F)(F)F)cc3)cc2C1=Cc1ncc[nH]1 [10720/E11]	−10.4
O=C1Nc2ccc(S(=O)(=O)N3CCOCC3)cc2C1=Cc1ncc[nH]1 [10720/F11]	1.6
COc1ccc(C=C2C(=O)Nc3ccc(CCCl)cc32)cc1OC [10720/G04]	5.0
O=C1Nc2ccc(CCCl)cc2C1=Cc1ccccc1O [10720/G05]	37.0
Cc1cc(C=C2C(=O)Nc3c(Br)cc(Br)cc32)sc1C [10721/A04]	85.0
CC(C)(C)c1cc(C=C2C(=O)Nc3c(Br)cc(Br)cc32)ccc1O [10721/A09]	23.0
CC(C)(C)c1cc(C=C2C(=O)Nc3ccc(I)cc32)cc(C(C)(C)C)c1O [10721/B11]	6.7
Cc1c(Br)ccc2c1C(=Cc1nn(C)cc1Cl)C(=O)N2 [10721/C03]	6.2
Cc1c(Br)ccc2c1C(=Cc1ccc(O)c(C(C)(C)C)c1)C(=O)N2 [10721/C09]	−4.7
